Key:
Histone deacetylase 2 [1] = target: T1, Histone deacetylase 2 (Homo sapiens, UniProt Q92769); settings: Sf9, time 60.0 min
Histone deacetylase 2 [2] = target: T1, Histone deacetylase 2; settings: Sf9, time 60.0 min; remark: listed apart in the source
Histone deacetylase 2 [3] = target: T1, Histone deacetylase 2; test: Inhibition of full-length recombinant human C-terminal GST tagged HDAC2 expressed in Sf9 insect cells using aminoluciferin peptide substrate at 100 nM preincubated for 3 hrs followed by substrate addition and measured after 30 mins by HDAC-Glo I/II chemiluminescence assay; settings: time 3.5 hrs

T1 sequence (Q92769 whole entry): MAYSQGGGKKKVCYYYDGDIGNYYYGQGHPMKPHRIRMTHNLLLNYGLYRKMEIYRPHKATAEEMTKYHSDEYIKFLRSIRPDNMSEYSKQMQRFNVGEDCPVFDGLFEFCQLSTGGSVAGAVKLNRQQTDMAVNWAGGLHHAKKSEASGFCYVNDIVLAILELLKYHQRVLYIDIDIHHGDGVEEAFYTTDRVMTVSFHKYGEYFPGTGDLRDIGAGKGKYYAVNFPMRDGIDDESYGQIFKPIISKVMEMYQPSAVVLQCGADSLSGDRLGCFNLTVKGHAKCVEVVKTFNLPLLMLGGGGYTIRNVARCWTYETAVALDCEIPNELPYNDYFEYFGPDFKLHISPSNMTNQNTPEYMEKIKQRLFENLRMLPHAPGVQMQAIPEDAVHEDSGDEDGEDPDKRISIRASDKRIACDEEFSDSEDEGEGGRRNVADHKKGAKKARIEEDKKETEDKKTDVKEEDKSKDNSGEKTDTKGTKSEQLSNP

ka (Histone deacetylase 2 [1])	Kdiss (Histone deacetylase 2 [2])	inhibition (Histone deacetylase 2 [3])	Structure (SMILES)
7670 M⁻¹ s⁻¹	5e-05 s⁻¹	–	Nc1ccccc1NC(=O)c1ccc(CNC(=O)OCc2cccnc2)cc1
13300 M⁻¹ s⁻¹	6.67e-05 s⁻¹	–	CC(=O)Nc1ccc(C(=O)Nc2cc(-c3cccs3)ccc2N)cc1
–	–	0%	Nc1ccc(-c2ccccc2)cc1NC(=O)CCc1cn(CCc2ccccn2)nn1
–	–	61%	Nc1ccc(-c2cccs2)cc1NC(=O)c1ccc(-c2cn(Cc3ccc(C(=O)O)cc3)nn2)s1
–	–	11%	Nc1ccc(-c2ccccc2)cc1NC(=O)CCc1cn(CC(=O)Nc2ccc(F)cc2)nn1
–	–	30%	Nc1ccc(-c2cccs2)cc1NC(=O)c1ccc(-c2cn(Cc3ccc4ccccc4n3)nn2)s1
–	–	0%	Nc1ccc(-c2ccc(F)cc2)cc1NC(=O)c1cn(CCc2ccc(C(F)(F)F)cc2)nn1
–	–	0%	Nc1ccc(-c2cccs2)cc1NC(=O)c1ccc(-c2cn(CC3CCCCC3)nn2)cc1
–	–	18%	Nc1ccc(-c2ccsc2)cc1NC(=O)c1cn(CCc2ccc(C(=O)O)cc2)nn1
–	–	0%	Nc1ccc(-c2ccc(F)cc2)cc1NC(=O)c1cn(Cc2cccc(C(=O)O)c2)nn1
–	–	0%	Nc1ccc(-c2ccsc2)cc1NC(=O)c1cn(CCc2ccccc2C(F)(F)F)nn1
–	–	21%	Nc1ccc(-c2ccsc2)cc1NC(=O)CCc1cn(CCc2ccc(F)cc2)nn1
–	–	17%	Nc1ccc(-c2cccs2)cc1NC(=O)CCc1cn(Cc2ccc(OC(F)(F)F)cc2)nn1
–	–	0%	Nc1ccc(-c2ccccc2)cc1NC(=O)c1cn(CCc2ccccc2[N+](=O)[O-])nn1
–	–	0%	CCc1ccc(Cn2cc(C(=O)Nc3cc(-c4ccsc4)ccc3N)nn2)cc1
–	–	49%	Nc1ccc(-c2ccsc2)cc1NC(=O)c1cn(Cc2ccc(C(=O)O)cc2)nn1
–	–	10%	Cc1csc(CCn2cc(C(=O)Nc3cc(-c4ccc(F)cc4)ccc3N)nn2)n1
–	–	10%	COc1ccc(Cn2cc(CCC(=O)Nc3cc(-c4cccnc4)ccc3N)nn2)cc1
–	–	15%	Nc1ccc(-c2ccc(F)cc2)cc1NC(=O)CCc1cn(CCc2cccc(F)c2)nn1
–	–	0%	Nc1ccc(-c2ccsc2)cc1NC(=O)c1cn(Cc2cccc(-c3ccccc3)c2)nn1
–	–	0%	Nc1ccc(-c2ccsc2)cc1NC(=O)c1cn(CCC2CCCC2)nn1
–	–	21%	COc1ccc(CCn2cc(CCC(=O)Nc3cc(-c4cccnc4)ccc3N)nn2)cc1
–	–	0%	Nc1ccc(-c2ccccc2)cc1NC(=O)c1cn(CCN2CCc3ccccc3C2)nn1
–	–	11%	Nc1ccc(-c2ccccc2)cc1NC(=O)CCc1cn(Cc2ccc3ccccc3c2)nn1
–	–	19%	Cc1ccc(CCn2cc(-c3ccc(C(=O)Nc4cc(-c5cccs5)ccc4N)cc3)nn2)cc1
–	–	0%	Nc1ccc(-c2cccs2)cc1NC(=O)c1ccc(-c2cn(CCc3cccc4ccccc34)nn2)s1

Source: ChEMBL document CHEMBL5390237, “Discovery of Selective Histone Deacetylase 1 and 2 Inhibitors: Screening of a Focused Library Constructed by Click Chemistry, Kinetic Binding Analysis, and Biological Evaluation” (J Med Chem, 2023)
